The subject of test [1] is HeLa. The test can be described thus: Cytotoxicity counterscreen assay for transcriptional activators of heat shock protein 70 (Hsp70). [Related pubchem assays: 1203, 1252 ]. The test is classed as functional. To be noted: Homo sapiens.
Test [2] in a line: NIH-3T3 fibroblast cytotoxicity, dose response, cytotoxicity control, cell-based, fluorescence, Alamar Blue, secondary assay (AID 2327).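 Note: NIH-3T3 mouse fibroblasts cultured with fluconazole at 8 µg/mL.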 The test is classed as functional. On the technique in general: The colour change of resazurin is a common sign of viable cells or microbes.
Test [3] addresses T1, Heat shock factor protein 1 (Mus musculus, UniProt P38532).
T1 sequence (P38532 whole entry): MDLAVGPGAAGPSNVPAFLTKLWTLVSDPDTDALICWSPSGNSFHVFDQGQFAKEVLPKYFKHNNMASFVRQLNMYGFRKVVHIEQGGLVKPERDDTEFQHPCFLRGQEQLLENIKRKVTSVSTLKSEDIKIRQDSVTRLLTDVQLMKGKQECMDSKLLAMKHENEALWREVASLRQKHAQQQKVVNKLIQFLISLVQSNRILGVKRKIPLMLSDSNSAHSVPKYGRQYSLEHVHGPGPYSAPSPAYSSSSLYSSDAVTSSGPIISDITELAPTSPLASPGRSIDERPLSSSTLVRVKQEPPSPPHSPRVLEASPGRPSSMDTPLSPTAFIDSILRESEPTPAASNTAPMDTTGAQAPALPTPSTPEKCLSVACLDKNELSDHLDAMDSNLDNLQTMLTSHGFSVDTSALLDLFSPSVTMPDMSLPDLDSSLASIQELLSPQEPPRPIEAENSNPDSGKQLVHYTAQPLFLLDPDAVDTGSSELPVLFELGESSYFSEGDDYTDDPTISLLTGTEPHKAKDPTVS
As to the kind of experiment: inhibition of MG132-induced HSE-luciferase signal, confirmation, cell-based, NIH3T3, luminescence, dose retest (AID 2382).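 Note: NIH3T3 fibroblasts with HSF1-driven luciferase reporter stressed by proteasome inhibitor MG132; luminescence from HSF1-driven luciferase expression after 8 hours of MG132 stress.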 The test is classed as functional.

Test [4] can be described thus: C. albicans growth with fluconazole, confirmation, fluorescence, retest (AID 2467). The test is classed as functional, cell-based.
The nature of test [5]: microbe, parasite or virus in culture. The test is classed as functional. To be noted: Mycobacterium tuberculosis.
Test [6] addresses Sphingosine 1-phosphate receptor 4 (Homo sapiens, UniProt O95977). As to the kind of experiment: Fluorescence dose response cell-based high throughput screening assay for antagonists of the Sphingosine 1-Phosphate Receptor 4 (S1P4). [Related pubchem assays: 1524 (Confirmation in triplicates.), 1510 (Primary screen.)]. The test is classed as functional.
Test [7] addresses Sphingosine 1-phosphate receptor 1 (Homo sapiens, UniProt P21453). The test is classed as functional.
The target in test [8] is Heat shock protein HSP 90-alpha (Homo sapiens, UniProt P07900). The test is classed as functional, organism-based.
Test [9] deals with INS1. The test can be described thus: beta cell apoptosis inhibitors, cytokine rescue, dose response, luminescence, retest (AID 449756).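 Note: cell death triggered by IL-1 beta plus TNF-alpha plus IFN-gamma mixture; protective hits raise ATP signal compared with cytokine alone wells.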 The test is classed as functional, cell-based. To be noted: Rattus norvegicus.
Test [10] is described as follows: luciferase reporter signal reduction – luminescence, H4-C neuroglioblastoma cells, dose response (AID 2458).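 Note: H4 neuroglioblastoma cells stably carrying a luciferase reporter gene fusion.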 The test is classed as functional, cell-based.
Test [11] is described as follows: cells. The test is classed as functional, cell-based.
Test [12] in a line: inhibitors of SNCA 5'UTR-driven reporter translation, confirmation, H4 neuroglioma cells, luminescence (AID 1988). The test is classed as functional, cell-based.
A short description of test [13]: Luminescence-based counterscreen assay for KLF5 inhibitors: dose response cell-based high throughput screening assay to identify cytotoxic compounds using the IEC-6 intestinal epithelial cell line. [Related pubchem assays: 1700 (Primary screen.), 1834 (Confirmation screen.), 1858 (Summary AID.), 1905 (Counterscreen.)]. The test is classed as functional. On the technique in general: The purpose of a counterscreen is to sort out artefacts and off-target activity.

Test [14] in a line: inhibitors of SNCA 5'UTR-driven translation, confirmation, luminescence, H4 neuroglioblastoma cells, dose confirmation (AID 2454).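 Note: H4 neuroglioblastoma cells carrying an alpha-synuclein 5'UTR luciferase reporter; potency for inhibition of the luciferase signal.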 The test is classed as functional, cell-based.
The target of test [15] is T2, Microphthalmia-associated transcription factor (Homo sapiens, UniProt O75030).
T2 sequence (O75030 whole entry): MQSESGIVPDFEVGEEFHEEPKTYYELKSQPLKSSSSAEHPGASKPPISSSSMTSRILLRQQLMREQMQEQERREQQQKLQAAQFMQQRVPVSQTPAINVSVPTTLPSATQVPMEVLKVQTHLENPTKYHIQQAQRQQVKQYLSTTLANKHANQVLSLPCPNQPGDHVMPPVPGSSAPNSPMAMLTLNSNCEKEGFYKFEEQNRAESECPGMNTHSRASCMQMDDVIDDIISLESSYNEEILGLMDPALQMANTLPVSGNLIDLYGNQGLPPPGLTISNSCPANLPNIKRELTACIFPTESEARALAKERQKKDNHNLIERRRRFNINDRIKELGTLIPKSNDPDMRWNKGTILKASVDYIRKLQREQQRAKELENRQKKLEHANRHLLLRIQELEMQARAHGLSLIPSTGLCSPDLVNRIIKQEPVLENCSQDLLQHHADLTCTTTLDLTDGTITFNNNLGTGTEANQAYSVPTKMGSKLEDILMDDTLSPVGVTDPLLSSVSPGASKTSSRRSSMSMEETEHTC
The test can be described thus: TRPM1 promoter luciferase signal decrease, dose response, MITF inhibitor project, cell-based, SK-MEL-5, cherry-picked, set 3 (AID 493073).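 Note: SK-MEL-5 melanoma cells with luciferase driven by the MITF target TRPM1 promoter.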 The test is classed as functional.

Test [16] can be described thus: inhibitors of HIV Env-driven cell fusion, dose response, cherry-pick (AID 652057). The test is classed as functional, cell-based.
Test [17] is described as follows: ZM109 Env clade C HIV-1 fusion inhibitors, dose response, HeLa effector, CEM target cells, luciferase, cherry-pick (AID 652058). The test is classed as functional, cell-based.
In test [18] the target is Paired box protein Pax-8 (Homo sapiens, UniProt Q06710). As to the kind of experiment: inhibitors of PAX8-driven TPO luciferase reporter, dose response, RMG-I cells, cherry-pick (AID 687027).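 Note: luciferase reporter driven by Pax8 target thyroperoxidase promoter measured by SteadyGlo luminescence.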 The test is classed as functional, cell-based. On the technique in general: Reporter assays use an easily measured gene product as a stand-in for the process of interest.
Chain of Paired box protein Pax-8 (Q06710 whole entry, the tested form may be a part): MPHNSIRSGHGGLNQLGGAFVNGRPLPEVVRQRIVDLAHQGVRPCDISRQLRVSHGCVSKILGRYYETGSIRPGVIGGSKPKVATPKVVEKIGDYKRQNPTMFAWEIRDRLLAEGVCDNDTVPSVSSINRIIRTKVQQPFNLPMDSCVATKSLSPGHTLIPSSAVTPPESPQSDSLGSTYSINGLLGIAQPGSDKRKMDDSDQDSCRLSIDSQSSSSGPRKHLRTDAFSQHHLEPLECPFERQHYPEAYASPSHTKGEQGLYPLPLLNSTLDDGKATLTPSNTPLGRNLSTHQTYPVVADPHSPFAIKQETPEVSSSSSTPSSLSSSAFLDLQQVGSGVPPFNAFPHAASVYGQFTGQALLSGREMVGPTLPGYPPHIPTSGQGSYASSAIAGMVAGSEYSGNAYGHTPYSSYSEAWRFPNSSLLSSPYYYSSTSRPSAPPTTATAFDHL
Test [19] can be described thus: off-target signal loss in HeLa-CEM21 co-culture – HeLa F-luc CTL cells, cherry-picked, counter-screen for HIV-1 Env fusion inhibitor project, dose response (AID 652040).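 Note: potency for signal decrease marking cytotoxic or nonspecific inhibition.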 The test is classed as functional, cell-based.
The nature of test [20]: inhibitors of clade B AD8 Env fusion, dose response, cell-based, cherry-pick (AID 652062).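 Note: luciferase signal from cell-cell fusion driven by HIV-1 clade B AD8 Env; potency is for inhibitors of fusion seen as a drop in luminescence.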 The test is classed as functional.
A short description of test [21]: PAX2 cell-based inhibition, dose response, selectivity assay for PAX8 inhibitor project, plate reader, dry powder samples (AID 743048).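 Note: HEK293 cells carrying a WT1 promoter luciferase reporter driven by expressed Pax2; potency is for inhibition of Pax2 driven reporter signal.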 The test is classed as functional.
The nature of test [22]: cytotoxicity in COV362 ovarian cancer cells, dose response, cytotoxicity control for PAX8 inhibitor project, cell-based, plate reader, dry powder, SA12 (AID 743144). The test is classed as functional.
Test [23] can be described thus: PAX5 activity inhibitors, dose response, selectivity assay for PAX8 inhibitor project, cell-based, plate reader, dry powder samples (AID 743047).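 Note: HEK293 cells carrying a Pax5 driven CD19 promoter luciferase reporter; potency of inhibitors that lower reporter luminescence.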 The test is classed as functional.
Test [24] is described as follows: LGR2 antagonists, dose response, cell-based, HEK293, CRE-luciferase reporter, cherry pick, set 2 (AID 743343).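 Note: transfected cells were stimulated with diluted bursicon conditioned medium after compound addition.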 The test is classed as functional.
Test [25] in a line: MC4R antagonists, dose response, counter-screen for LGR2 antagonist project, cell-based, plate reader, cherry pick (AID 743444).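 Note: transfected HEK 293 cells stimulated with alpha-MSH peptide; potency of inhibitors of the alpha-MSH evoked signal.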 The test is classed as functional.
Test [26] in a line: cytotoxicity dependent on PAX8, dose response, cell-based, plate reader, dry powder (AID 743049). The test is classed as functional.
Test [27] can be described thus: inhibitors of Bluetongue virus cytopathic effect, confirmation, arbovirus, BSR cells (AID 1250).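 Note: protection from viral cytopathic effect measured as cell viability by ATP luminescence.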 The test is classed as functional.
A short description of test [28]: HepG2 cell cytotoxicity, dose response, cytotoxicity control, plate reader, cherry-pick, antagonist series (AID 743416). The test is classed as functional, cell-based.
The nature of test [29]: HEK293 cell cytotoxicity, dose response, cytotoxicity control, plate reader, cherry-picked samples (AID 743446). The test is classed as functional, cell-based.
Test [30] has as its target T3, Estrogen receptor (Homo sapiens, UniProt P03372).
T3 sequence (P03372 whole entry): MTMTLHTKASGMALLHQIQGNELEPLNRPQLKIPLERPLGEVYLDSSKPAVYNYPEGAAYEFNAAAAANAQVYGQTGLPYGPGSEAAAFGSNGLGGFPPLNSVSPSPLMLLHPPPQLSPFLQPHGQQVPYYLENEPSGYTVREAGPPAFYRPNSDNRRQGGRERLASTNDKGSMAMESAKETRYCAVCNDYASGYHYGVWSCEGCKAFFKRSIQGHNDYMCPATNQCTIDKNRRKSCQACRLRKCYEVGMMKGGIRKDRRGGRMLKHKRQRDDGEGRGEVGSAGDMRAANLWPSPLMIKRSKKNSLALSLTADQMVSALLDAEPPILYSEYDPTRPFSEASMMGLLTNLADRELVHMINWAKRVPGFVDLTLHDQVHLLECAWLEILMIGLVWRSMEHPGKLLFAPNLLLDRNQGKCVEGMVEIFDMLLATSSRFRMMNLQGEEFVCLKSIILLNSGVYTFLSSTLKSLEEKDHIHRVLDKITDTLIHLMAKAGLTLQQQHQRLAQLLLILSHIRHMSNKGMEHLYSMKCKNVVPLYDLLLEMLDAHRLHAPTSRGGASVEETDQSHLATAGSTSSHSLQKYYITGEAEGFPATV
The test can be described thus: potentiators of ERα–SRC-1 coactivator binding, dose response, biochemical, TR-FRET, ERα LBD (AID 737).

Test [31] deals with Melanocortin receptor 4 (Homo sapiens, UniProt P32245). The test is classed as functional, cell-based.
Chain of Melanocortin receptor 4 (P32245 whole entry): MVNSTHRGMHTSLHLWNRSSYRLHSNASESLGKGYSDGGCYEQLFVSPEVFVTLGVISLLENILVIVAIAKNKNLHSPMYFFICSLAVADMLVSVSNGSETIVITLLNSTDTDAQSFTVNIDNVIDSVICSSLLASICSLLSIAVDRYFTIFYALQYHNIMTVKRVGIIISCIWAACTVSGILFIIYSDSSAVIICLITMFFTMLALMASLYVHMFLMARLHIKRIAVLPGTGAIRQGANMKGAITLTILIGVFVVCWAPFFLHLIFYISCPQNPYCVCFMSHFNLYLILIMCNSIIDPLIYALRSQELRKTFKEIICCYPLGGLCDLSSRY
Test [32] has as its target T3, Estrogen receptor. The test can be described thus: ERα–SRC-3 coactivator interaction inhibitors, confirmation, orthogonal assay, biochemical, ELISA, streptavidin-HRP readout (AID 1079).
Test [33] concerns the target Eukaryotic translation initiation factor 4H (Homo sapiens, UniProt Q15056). As to the kind of experiment: human eIF4H binding inhibitors, primary screen, translation initiation inhibitor project, biochemical, uHTS, fluorescence polarization (AID 2012).
In test [34] the target is Polyadenylate-binding protein 1 (Homo sapiens, UniProt P11940). As to the kind of experiment: PABP poly(A) RNA binding inhibitors, primary screen, biochemical, fluorescence polarization, uHTS (AID 2014).
Chain of Polyadenylate-binding protein 1 (P11940 whole entry): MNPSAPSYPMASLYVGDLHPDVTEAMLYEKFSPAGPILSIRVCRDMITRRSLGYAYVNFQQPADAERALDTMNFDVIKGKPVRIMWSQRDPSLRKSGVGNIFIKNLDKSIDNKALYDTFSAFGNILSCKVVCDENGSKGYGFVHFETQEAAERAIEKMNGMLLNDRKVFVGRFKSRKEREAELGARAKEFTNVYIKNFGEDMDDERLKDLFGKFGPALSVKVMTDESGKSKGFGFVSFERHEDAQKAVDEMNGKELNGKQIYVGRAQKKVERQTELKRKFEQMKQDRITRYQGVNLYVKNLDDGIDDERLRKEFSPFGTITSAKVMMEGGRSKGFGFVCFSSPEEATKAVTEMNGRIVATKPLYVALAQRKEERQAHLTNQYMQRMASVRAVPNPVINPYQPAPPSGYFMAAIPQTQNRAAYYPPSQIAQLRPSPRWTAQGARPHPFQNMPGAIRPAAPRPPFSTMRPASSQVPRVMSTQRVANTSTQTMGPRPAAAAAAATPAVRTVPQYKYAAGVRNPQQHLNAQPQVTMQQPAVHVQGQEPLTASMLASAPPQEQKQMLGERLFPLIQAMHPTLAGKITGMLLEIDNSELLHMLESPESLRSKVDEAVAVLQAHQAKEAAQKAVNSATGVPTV
In test [35] the target is DNA dC->dU-editing enzyme APOBEC-3A (Homo sapiens, UniProt P31941). As to the kind of experiment: Dose Response confirmation of small molecule APOBEC3A DNA Deaminase Inhibitors via a fluorescence-based single-stranded DNA deaminase assay. [Related pubchem assays (depositor defined):AID493011, AID493024]. The test is classed as functional.
Chain of DNA dC->dU-editing enzyme APOBEC-3A (P31941 whole entry): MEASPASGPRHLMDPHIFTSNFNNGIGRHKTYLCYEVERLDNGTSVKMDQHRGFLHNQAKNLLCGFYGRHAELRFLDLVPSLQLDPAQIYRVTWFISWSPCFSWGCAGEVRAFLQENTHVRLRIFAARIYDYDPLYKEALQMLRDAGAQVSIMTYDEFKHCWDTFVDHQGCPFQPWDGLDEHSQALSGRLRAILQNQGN
In test [36] the target is DNA dC->dU-editing enzyme APOBEC-3G (Homo sapiens, UniProt Q9HC16). The test is classed as functional.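 Note: Dose-response counterscreen measuring inhibition of APOBEC3G DNA deaminase activity, run while confirming APOBEC3A inhibitors.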
Chain of DNA dC->dU-editing enzyme APOBEC-3G (Q9HC16 whole entry): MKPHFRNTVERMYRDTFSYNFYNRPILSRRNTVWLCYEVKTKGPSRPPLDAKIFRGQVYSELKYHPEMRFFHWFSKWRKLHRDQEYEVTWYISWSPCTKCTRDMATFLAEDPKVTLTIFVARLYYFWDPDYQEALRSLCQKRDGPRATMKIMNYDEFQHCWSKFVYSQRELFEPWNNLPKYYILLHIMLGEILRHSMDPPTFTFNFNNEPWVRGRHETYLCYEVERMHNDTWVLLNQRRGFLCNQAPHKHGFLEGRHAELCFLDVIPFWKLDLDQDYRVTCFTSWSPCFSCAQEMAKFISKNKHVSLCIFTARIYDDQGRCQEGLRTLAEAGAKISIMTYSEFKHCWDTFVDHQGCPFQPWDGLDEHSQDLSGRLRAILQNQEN
For test [37], the target named is T4, Eukaryotic translation initiation factor 2-alpha kinase 3 (Homo sapiens, UniProt Q9NZJ5). The test can be described thus: Dose response cell-based high-throughput screening assay to measure PERK inhibition. [Related pubchem assays: 1416 ]. The test is classed as functional.
T4 sequence (Q9NZJ5 whole entry): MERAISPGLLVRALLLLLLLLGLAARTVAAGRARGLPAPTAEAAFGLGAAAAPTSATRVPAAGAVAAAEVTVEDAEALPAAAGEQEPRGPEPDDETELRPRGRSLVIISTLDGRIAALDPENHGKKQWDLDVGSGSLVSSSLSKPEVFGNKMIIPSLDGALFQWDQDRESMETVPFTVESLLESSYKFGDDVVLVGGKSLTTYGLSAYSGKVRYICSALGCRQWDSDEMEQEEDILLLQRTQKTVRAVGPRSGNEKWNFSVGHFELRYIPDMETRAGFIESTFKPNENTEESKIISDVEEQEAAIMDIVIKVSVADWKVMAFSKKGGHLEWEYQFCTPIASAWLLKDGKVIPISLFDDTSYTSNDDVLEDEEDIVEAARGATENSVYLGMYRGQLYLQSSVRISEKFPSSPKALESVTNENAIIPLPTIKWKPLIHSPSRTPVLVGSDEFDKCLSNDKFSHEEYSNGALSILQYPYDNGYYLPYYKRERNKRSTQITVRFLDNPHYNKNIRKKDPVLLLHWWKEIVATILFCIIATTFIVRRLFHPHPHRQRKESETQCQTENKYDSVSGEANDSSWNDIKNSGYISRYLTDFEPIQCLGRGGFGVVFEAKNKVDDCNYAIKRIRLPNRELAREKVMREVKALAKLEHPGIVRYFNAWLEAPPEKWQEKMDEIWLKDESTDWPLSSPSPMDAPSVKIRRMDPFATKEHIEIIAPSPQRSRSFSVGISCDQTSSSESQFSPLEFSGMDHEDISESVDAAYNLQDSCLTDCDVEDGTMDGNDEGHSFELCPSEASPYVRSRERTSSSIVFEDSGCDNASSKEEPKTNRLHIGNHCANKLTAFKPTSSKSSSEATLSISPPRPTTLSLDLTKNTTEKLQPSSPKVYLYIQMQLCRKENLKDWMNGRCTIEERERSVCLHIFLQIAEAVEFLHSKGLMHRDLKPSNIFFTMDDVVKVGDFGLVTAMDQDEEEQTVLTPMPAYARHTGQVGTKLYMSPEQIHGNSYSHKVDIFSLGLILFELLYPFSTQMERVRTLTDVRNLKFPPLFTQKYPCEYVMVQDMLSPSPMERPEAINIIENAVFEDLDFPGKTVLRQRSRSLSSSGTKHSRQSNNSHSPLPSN
For test [38], the target named is T4, Eukaryotic translation initiation factor 2-alpha kinase 3. As to the kind of experiment: Counterscreen assay for PERK inhibitors: Dose response cell-based high throughput screening assay to measure inhibition of PERK at 6 hours. [Related pubchem assays: 1522, 1416 ]. The test is classed as functional.

Activity calls are given as the source filed them. Bounds are passed on as bounds.

Eight compounds from ChEMBL document CHEMBL1201862, “PubChem BioAssay data set” (2004) can be followed below.

Chain of Sphingosine 1-phosphate receptor 1 (P21453 whole entry): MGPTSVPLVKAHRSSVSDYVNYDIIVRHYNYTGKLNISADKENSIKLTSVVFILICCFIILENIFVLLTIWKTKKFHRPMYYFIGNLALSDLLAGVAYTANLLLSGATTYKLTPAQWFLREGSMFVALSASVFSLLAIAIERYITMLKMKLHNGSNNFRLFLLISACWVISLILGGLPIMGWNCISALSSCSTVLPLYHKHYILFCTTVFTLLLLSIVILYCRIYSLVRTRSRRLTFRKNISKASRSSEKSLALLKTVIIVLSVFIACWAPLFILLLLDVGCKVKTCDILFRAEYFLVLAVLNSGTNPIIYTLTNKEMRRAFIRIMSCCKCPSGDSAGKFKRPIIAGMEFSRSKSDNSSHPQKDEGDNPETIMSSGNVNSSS
Chain of Sphingosine 1-phosphate receptor 4 (O95977 whole entry): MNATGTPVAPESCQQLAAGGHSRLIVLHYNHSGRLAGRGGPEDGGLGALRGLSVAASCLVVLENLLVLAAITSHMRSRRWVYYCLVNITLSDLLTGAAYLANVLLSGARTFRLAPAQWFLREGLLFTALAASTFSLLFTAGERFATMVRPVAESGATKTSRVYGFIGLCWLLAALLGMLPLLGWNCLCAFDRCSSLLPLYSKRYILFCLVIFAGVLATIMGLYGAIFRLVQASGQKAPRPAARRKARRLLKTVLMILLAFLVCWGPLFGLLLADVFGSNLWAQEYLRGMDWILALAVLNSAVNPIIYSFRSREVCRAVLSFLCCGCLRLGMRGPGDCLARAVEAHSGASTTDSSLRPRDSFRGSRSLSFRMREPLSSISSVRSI

As for `Cc1nn(C)c(C)c1NC(=O)c1ccc(S(=O)(=O)N(C)C)cc1`, the CC50 in test [1] is listed as > 99 µM (not active).
As to `Cc1cc([N+](=O)[O-])c2ccccc2[n+]1[O-]`, the EC50 in test [2] was 4.65 µM (inconclusive); in test [3], 6.35 µM (active); in [4], 97 nM (active). Moreover, the CC50 in test [5] was < 160 nM (active). In addition, the concentration for half-maximal inhibition (IC50) in test [6] was 220 nM (active); in test [7], 3.28 µM (active). Besides, the AC50 was < 195 nM (active) in test [8] and 2.24 µM (active) in test [9].
With `Cc1ccccc1OCC(=O)Nc1cccc(C(=O)O)c1`, the EC50 is 541 nM (active) in test [10], 725 nM (active) in [11], < 100 nM (active) in test [12] and 393 nM (active) in test [14]. In [13], the IC50 was > 39.8 µM (not active). Moreover, the AC50 in test [15] was 1.05 µM (active); in test [16], 342 nM (active); in test [17] it was 7.82 µM (active); in test [18], 2.3 µM (active); in test [19] it was 951 nM (active); in test [20] it was 1.27 µM (active). Moreover, the AC50 in test [21] is 3.61 µM (active); in test [22] it was > 100 µM (inactive); in [23], 3.76 µM (active); in test [24], 0.669 µM (active); in [25], 1.05 µM (active); in test [26], > 100 µM (inactive).
For `COc1ccc(-c2csc(NC(=O)c3ccc(OCC(=O)N4CCOCC4)c(OC)c3)n2)cc1`, in [27], the IC50 is 27.5 µM (active). Moreover, the AC50 is > 52 µM (inactive) in test [28], 18.4 µM (active) in test [24], 22.4 µM (active) in test [25] and 43.1 µM (active) in test [29].
As to `COc1cc(C(=O)Nc2nnc(-c3sccc3C)s2)cc(OC)c1OC`, the EC50 was 13.2 µM (active) in [30] and > 89.2 µM (inactive) in test [31].
On to `O=C(CCCn1c(=S)[nH]c2ccccc2c1=O)N1CCN(Cc2cccc3ccccc23)CC1`, for which, in [32], the IC50 is reported as 170 nM (not active).
As for `CC(=O)OC(C[N+]1(C)CCCCCC1)c1ccccc1` (stereo not given), the IC50 in test [33] was > 100 µM (inactive); in [34], 9.62 µM (active); in [35], 2.79 µM (active); in test [36] it was 2.4 µM (active).
Take `Oc1cnnc(N/N=C/c2cccs2)n1`: the EC50 in test [37] and in [38] was > 55.7 µM (not active) throughout.

In general, EC50 refers to the concentration at which the effect is half-maximal. Broadly, the IC50 is the concentration at which inhibition is half-maximal. As usually defined, the AC50 is the concentration giving half of the maximal activity seen.
